{"source": "patent US6828091B2", "about": "“Method of identifying immunosuppressive agents” (Cytovia, Inc., priority 2000, dated 2004)", "key": {"activated T lymphocytes [1]": {"system": "activated T lymphocytes", "assay": "Caspase cascade activation with fluorogenic reporter, activated T lymphocytes", "type": "cell-based, Human", "details": "for Caspase Activity in Activated Cells 24 Hr Induction (Ratio): OKT3-activated human T lymphocytes, 24 hr incubation, ratio Net Sample RFU/Net Control RFU; for Induction of apoptosis in activated T cells (in words): 24 hr", "procedure": "(§1) Human peripheral blood mononuclear cells (PBMC), were purchased from Clonetics, San Diego (cat. No. CC2702). These cells were primarily enriched in T lymphocytes by a process of leukapheresis and density gradient centrifugation (Clonetics), and contain some monocytes and no B lymphocytes or Dendritic cells. Cells are cultured (0.75×10^6 cells/ml) in RPMI 1640 medium containing 10% fetal bovine serum (Gibco), 2 mM L-Glutamine, 25 mM Hepes, 1 mM sodium pyruvate, 1 mM non-essential aminoacids (NEAA) and 1% penicillin/streptomycin solution. Cells were then activated with 100 ng/ml of murine monoclonal antibody (OKT3) to the human T cell receptor (Liu, Y-C., et al., J. Biol. Chem 272: 9979 (1996)). Cells were incubated at 37° C. in a 5% CO2-95% humidity incubator for 3 days. […] In a parallel experiment, resting T lymphocytes that were not activated by the above method were used directly in an experiment. An aliquot of 45 μl of activated or resting T lymphocytes (containing 10^5 cells) was added to a well of a 96-well microtiter plate containing 5 μl of a 10% DMSO in RPMI 1640 medium containing serial 2-fold dilution of the different test compounds starting at a concentration of 10 uM.\n(§2) An aliquot of 45 μl of cells was also added to a well of a 96-well microtiter plate containing 5 μl of a 10% DMSO in RPMI 1640 medium without the test compounds as the control sample. The samples were gently mixed by agitation and then incubated at 37° C. for 24 hr in a 5% CO2-95% humidity incubator. After incubation, the samples were removed from the incubator and 50 μl of a solution containing 20 μM of N-(Ac-DEVD)-N′-ethoxycarbonyl-R110 (SEQ ID NO. 1) fluorogenic substrate U.S. Pat. No. 6,342,611; WO 99/18856), 20 mM DTT(Sigma) in Hanks Balanced Salt Solution (HBSS, Gibco) was added. The samples were mixed by agitation and incubated for 1 hr at room temperature. Using a fluorescent plate reader (Model 1420, Wallac Instruments), an initial reading (T=0) was made approximately […] after addition of the substrate solution, employing excitation at 485 nm and emission at 530 nm, to determine the background fluorescence of the control sample. After the 1 hr incubation, the samples were read for fluorescence as above (T=1 hr).\n(§3) Calculation: Measured relative fluorescence unit (RFU) values were used to calculate the gain in fluorescence of the sample with the test compound as follows:\n(§4) Sample RFU(T=1 hr)−Sample RFU(T=0)=Net Sample RFU (4)\n(§5) and the background gain in fluorescence of the control sample (lacking the test compound) as follows:\n(§6) Control RFU(I=1 hr)−Control RFU(I=0)=Net Control RFU (5)\n(§7) The relative potency of a given test compound is given by the following ratio:\n(§8) (Net Sample RFU)/(Net Control RFU) (6)"}, "resting T lymphocytes [2]": {"system": "resting T lymphocytes", "assay": "Caspase cascade activation with fluorogenic reporter, resting T lymphocytes", "type": "cell-based, Human", "details": "for Induction of apoptosis in resting T cells (in words): 24 hr; for Caspase Induction in Resting T Cells 24 Hr Induction (Ratio): resting human T lymphocytes, 24 hr incubation, ratio Net Sample RFU/Net Control RFU", "procedure": "as §1, §2, §3, §4, §5, §6, §7, §8"}, "resting T lymphocytes [3]": {"system": "resting T lymphocytes", "assay": "Cytotoxicity with chromogenic reporter of mitochondrial activity, resting T lymphocytes", "type": "cell-based, Human", "details": "48 hr, absorbance 490 nm, FIG. 1 or 2", "procedure": "(§9) Human peripheral blood mononuclear cells (PBMC), were purchased from Clonetics, San Diego (cat. no. CC2702). These cells were primarily enriched in T lymphocytes by a process of leukapheresis and density gradient centrifugation (Clonetics), and contain some monocytes and no B lymphocytes or Dendritic cells. Cells are cultured (0.75×10^6 cells/ml) in RPMI 1640 medium containing 10% fetal bovine serum (Gibco), 2 mM L-Glutamine, 25 mM Hepes, 1 mM sodium pyruvate, 1 mM non essential aminoacids (NEAA) and 1% penicillin/streptomycin solution. Cells were then activated with 100 ng/ml of murine monoclonal antibody to the human T cell receptor (Liu, Y-C., et al., J. Biol. Chem. 272: 9979 (1996)). Cells were incubated at 37° C. in a 5% CO2-95% humidity incubator for 3 days. […] In a parallel experiment, resting T lymphocytes that were not activated in the above mentioned method were used directly in an experiment.\n(§10) An aliquot of 45 μl of activated or resting T lymphocytes (containing 10^5 cells) was added to wells of a 96-well microtiter plate containing 5 μl of a 10% DMSO in RPMI 1640 medium containing different dilutions of the test compounds. […] Using a plate reader (Model 1420, Wallac Instruments), samples were read at absorbance 490 nm."}, "activated T lymphocytes [4]": {"system": "activated T lymphocytes", "assay": "Cytotoxicity with chromogenic reporter of mitochondrial activity, activated T lymphocytes", "type": "cell-based, Human", "details": "48 hr, absorbance 490 nm, FIG. 1 or 2", "procedure": "as §9, §10"}, "[5]": {"system": "collagen induced arthritis", "assay": "Collagen-induced arthritis (CIA) mouse model", "type": "in vivo", "details": "1 mg/kg subcutaneously daily from 2nd immunization (Day 21), DBA/1 mice, FIG. 3"}}}
{"compound": "Cc1ccc(C2CC(c3c(O)cc(C)oc3=O)=NCCS2)cc1", "note": "(stereo not shown) [5-(4-hydroxy-6-methyl-2H-pyran-2-one-3-yl)-7-(4-methylphenyl)-2,3,6,7-tetrahydro-1,4-thiazepine]", "values": [{"measurement": "Caspase Activity in Activated Cells 24 Hr Induction (Ratio)", "setting": "activated T lymphocytes [1]", "result": 1.0}, {"measurement": "Induction of apoptosis in activated T cells (in words)", "setting": "activated T lymphocytes [1]", "result": "did not induce apoptosis in either cell type"}, {"measurement": "Induction of apoptosis in resting T cells (in words)", "setting": "resting T lymphocytes [2]", "result": "did not induce apoptosis in either cell type"}, {"measurement": "Caspase Induction in Resting T Cells 24 Hr Induction (Ratio)", "setting": "resting T lymphocytes [2]", "result": 1.0}]}
{"compound": "CC(C)=CCC[C@]1(C)C=Cc2c(O)c3c(c(CC=C(C)C)c2O1)O[C@]12C(=C[C@@H]4C[C@H]1C(C)(C)O[C@@]2(C/C=C(/C)C(=O)O)C4=O)C3=O", "note": "[gambogic acid]", "values": [{"measurement": "Caspase Activity in Activated Cells 24 Hr Induction (Ratio)", "setting": "activated T lymphocytes [1]", "result": 3.4}, {"measurement": "Induction of apoptosis in activated T cells (in words)", "setting": "activated T lymphocytes [1]", "result": "induced apoptosis in both activated and resting T cells"}, {"measurement": "Induction of apoptosis in resting T cells (in words)", "setting": "resting T lymphocytes [2]", "result": "induced apoptosis in both activated and resting T cells"}, {"measurement": "Caspase Induction in Resting T Cells 24 Hr Induction (Ratio)", "setting": "resting T lymphocytes [2]", "result": 2.0}]}
{"compound": "CN(Cc1cnc2nc(N)nc(N)c2n1)c1ccc(C(=O)N[C@@H](CCC(=O)O)C(=O)O)cc1", "note": "[methotrexate]", "values": [{"measurement": "Cytotoxicity to resting T cells (in words)", "setting": "resting T lymphocytes [3]", "result": "not to resting T lymphocytes"}, {"measurement": "Cytotoxicity to activated T cells (in words)", "setting": "activated T lymphocytes [4]", "result": "only cytotoxic to activated"}]}
{"compound": "C[C@]12C=CC(=O)C=C1CC[C@@H]1[C@@H]2[C@@H](O)C[C@@]2(C)[C@H]1CC[C@]2(O)C(=O)CO", "note": "[predisolone, Prednisolone]", "values": [{"measurement": "Decrease in cumulative CIA score", "setting": "[5]", "result": 75, "unit": "%"}]}
{"compound": "CN[C@@H]1C[C@H]2O[C@@](C)([C@@H]1OC)n1c3ccccc3c3c4c(c5c6ccccc6n2c5c31)C(=O)NC4", "note": "[staurosporine]", "values": [{"measurement": "Cytotoxicity to resting T cells (in words)", "setting": "resting T lymphocytes [3]", "result": "cytotoxic to both activated and resting T cells"}, {"measurement": "Cytotoxicity to activated T cells (in words)", "setting": "activated T lymphocytes [4]", "result": "cytotoxic to both activated and resting T cells"}]}
